Experimental data: US20050234015A1, “Low molecular weight heparin salt with triethanolamine useful as therapeutic-antitrombotic agent of local delivery, procedures for preparing them, process for elimination of hygroscopicity of heparin salt, pharmaceutical compositions for local use in antithrombotic therapy and uses therein” (priority 2004, published 2005)
Where two headings read alike, the source gives them in different places.

Assays:
IIa [1] = target: T1, IIa (Homo sapiens, UniProt P00734); assay: anti IIa strength, European Pharmacopoeia 2002 Low Molecular Mass Heparin; assay type: biochemical
Method: (§1) The anti Xa and anti IIa biological strengths were measured according to the European Pharmacopoeia EP2002; “Low Molecular Mass Heparin”, as well as the mean molecular weights (weighed average Mw) and the molecular weight distribution. Moreover, the standards and gages are those strictly cited in the mentioned literature. It is noted that in the run buffer for the chromatographic test by HPLC (Na2SO4, 0.2M pH 5.0) the TEA is replaced by N^a+ whereby the declared value is that of the sodium polysaccharide fraction and not the one of the LMWH-TEA salt.
(§2) 7) Analytical Techniques Used • The anticoagulant strength of injectable heparin was determined according to European Pharmacopoeia 2002 (EP strength) and to USP 26 (USP strength) • Anti Xa and anti ha strengths were determined according to the literature of low molecular weight heparins (European Pharmacopoeia 2002) • Distribution of molecular weights and mean ponderal molecular weight were determined according to the literature of low molecular weight heparins (European Pharmacopoeia 2002), therefore, in the run buffer, TEA is replaced by Na^+ and the data obtained then pertain to polysaccharide sodium salt and not to TEA salt. • Triethanolamine is dosed by potentiometric titration.

[2] = hygroscopicity of the lyophilized product (observation); assay type: physicochemical; settings: lyophilized solid
Excerpt: The salt obtained from the reaction of the triethanolamine (TEA) with the low molecular weight heparin (LMWH) is an amber colored substance, with a waxy appearance, extremely difficult to manipulate due to its high hygroscopicity. These characteristics of the LMWH-TEA salt make extremely difficult its precise dosage in the preparation of the pharmaceutical end products (creams, gels, ointments).

[3] = tested on: experimental thrombosis in the tail of the test rat; assay: κ-carrageenan rat tail thrombosis model, local cream treatment; assay type: in vivo, Wister rats (female); settings: 1000 u antiXa/gram, compared with local heparin and LMWH sodium salt creams
Excerpt: With such criteria, Wister rats (female) raised in the laboratory and sanitarily controlled were used as test mammal.
Particularly, the thrombosis model developed consists of generating an experimental thrombosis in the tail of the test rat by intravenous injection (right caudal vein) of a thrombogenic substance such as κ-carrageenan. Without treatment, the tail of the animal totally forms thrombus without remission over time and ends up with necrosis after 3-4 days.
Particularly, this test was carried out according to the general outlines in Beckmeier et al, Agents and Actions, 16, 446 (1985), as follows:
a. Animals: female rats of 200-300 grams weight.
b. Thrombosing Solution: κ carrageenan Type II solution (Sigma C 1263) 1 mg/ml in sterile physiologic solution. 1 ml /kg of animal (right caudal vein of the tail) is injected (0.25 ml).
c. Thrombus induction: a tourniquet is placed near the tail base (15 cm from the end thereof) which was previously shaved. After 1 minute a thrombosing solution is injected and the animal tail is immediately immersed for 30 seconds in ice water, water is removed, it is dried and the tourniquet is kept for an additional 30 seconds. Then, the animal is kept for 2 minutes in a chamber at 10° C.
d. […]

Xa [4] = assay: anti Xa strength, European Pharmacopoeia 2002 Low Molecular Mass Heparin; assay type: biochemical
Method: as §1, §2

Xa [5] = settings: LMWH sodium salt by radical fragmentation methods, European Pat. 268885, U.S. Pat. No. 4,977,250; cited from earlier work
IIa [6] = target: T1, IIa; settings: LMWH sodium salt by radical fragmentation methods, European Pat. 268885, U.S. Pat. No. 4,977,250; cited from earlier work
[7] = anticoagulant strength of injectable heparin according to European Pharmacopoeia 2002 (EP strength); assay type: biochemical
Method: as §2

[8] = Example 3 comparison: LMWH-TEA of Example 2 vs lyophilizate with mannitol (60:40)
[9] = theoretical calculation: 100 g LMWH-Na = 167 g LMWH-TEA

low molecular weight heparin salt with triethanolamine [LMWH-TEA]
anti IIa Strength (IIa [1]; [8]): 24 iu/mg | anti IIa Strength (IIa [1]; product of Example 1): 24 iu/mg | anti IIa Strength (IIa [1]; product of Example 2): 24 iu/mg | anti IIa, Experimental (IIa [1]; summary of experimental data): 24 iu/mg | anti IIa, Theoretical (IIa [1]; [9]): 24 iu/mg | hygroscopicity [2]: highly hygroscopic | efficacy against thrombosis, in words [3]: highly significant restitutive activity | anti Xa Strength (Xa [4]; [8]): 50 iu/mg | anti Xa Strength (Xa [4]; product of Example 1 (HClO depolymerization, diafiltration with TEA)): 51 iu/mg | anti Xa Strength (Xa [4]; product of Example 2 (H2O2/FeSO4 depolymerization, ion exchange resin, TEA)): 50 iu/mg | anti Xa, Experimental (Xa [4]; summary of experimental data): 50-51 iu/mg | anti Xa, Theoretical (Xa [4]; [9]): 54 iu/mg

low molecular weight heparin sodium salt [LMWH Na]
anti Xa Strength (Xa [5]): ~90 iu/mg | anti IIa Strength (IIa [6]): ~40 iu/mg

heparin [Injectable Heparin]
EP Strength ([7]; starting injectable heparin of Example 1): 182 iu/mg | EP Strength ([7]; starting injectable heparin of Example 2): 180 iu/mg
